US9359323B2, “Compound” (priority 2010, dated 2016)

Columns and labels:
[1] = test system: mouse β-cell insulinoma line MIN-6; assay: tert-butyl hydroperoxide (tBHP) challenge of MIN-6 cells, MTT viability assay; assay type: cell-based; details: compound added 30 minutes prior to tBHP, FIG. 3
Description: The mouse β-cell insulinoma line MIN-6 was maintained in high glucose DMEM supplemented with 15% heat-inactivated foetal bovine serum (FBS) and 70 μM 2-mercaptoethanol.
(§1) MIN-6 cells were plated into a 96-well tissue culture plate at a density of 2.0×10^4 cells per well. The cells were cultured at 37° C. in an atmosphere of 5% CO2 for 20-24 hours before the addition of AO3003, 30 minutes prior to the onset of the tert-butyl hydroperoxide (tBHP) challenge. The cells were incubated with tBHP for 30 minutes at 37° C. (5% CO2) before 20 μl 5 mg/ml 3-(4,5-Dimethyl-2-thiazolyl)-2,5-diphenyl-2H-tetrazolium bromide (MTT) was added to each of the treatment wells. The cells were incubated for a further 3 hours at 37° C. (5% CO2) before all the supernatant was removed from the cells and the insoluble MTT formazan dye, produced by the reduction of MIT by viable cells, was solubilised in 200 μl dimethyl sulfoxide (DMSO). The absorbance of the resulting solution was measured at 540 nm and was proportional to the number of viable […] cells remaining after the tBHP challenge. DMEM is the control viability of cells without peroxide or tBHP.

[2] = test system: mouse embryonic stem cell line E14Tg2a; assay: tert-butyl hydroperoxide (tBHP) challenge of mES cells, MTT viability assay; assay type: cell-based
Description: The mouse embryonic stem cell line E14Tg2a was maintained in a pluripotent state in knockout (KO) DMEM supplemented with leukaemia inhibitory factor (LIF), 15% (v/v) knockout serum replacement, 0.1 mM MEM non-essential amino acids, 2 mM 1-glutamine and 140 μM 2-mercaptoethanol in tissue culture flasks coated with 0.1% (w/v) gelatin.
as §1, with “mES cells were” for “MIN-6 cells were”, “into a 0.1% (w/v) gelatin coated 96-well tissue” for “into a 96-well tissue”, “density of 1.5×10^4 cells per” for “density of 2.0×10^4 cells per”, “tBHP for 90 minutes at” for “tBHP for 30 minutes at”, “reduction of MTT by viable” for “reduction of MIT by viable”, “tBHP challenge.” for “tBHP challenge. DMEM is the control viability of cells without peroxide or tBHP.”
mES cells were plated into a 0.1% (w/v) gelatin coated 96-well tissue culture plate at a density of 7.5×10^3 cells per well. The cells were cultured at 37° C. in an atmosphere of 5% CO2 for 20-24 hours before the addition of AO3003, 20 hours prior to the onset of the tert-butyl hydroperoxide (tBHP) challenge. The cells were incubated with tBHP for 90 minutes at 37° C. (5% CO2) before 20 μl 5 mg/ml 3-(4,5-Dimethyl-2-thiazolyl)-2,5-diphenyl-2H-tetrazolium bromide (MTT) was added to each of the treatment wells. The cells were incubated for a further 3 hours at 37° C. (5% CO2) before all the supernatant was removed from the cells and the insoluble MIT formazan dye, produced by the reduction of MTT by viable cells, was solubilised in 200 μl dimethyl sulfoxide (DMSO). The absorbance of the resulting solution was measured at 540 nm and was proportional to the number of viable mES cells remaining after the tBHP challenge.

O=c1c(O)c(-c2cc(O)c(O)c(O)c2)oc2cc(C3CCCCC3)ccc12 [AO3003]
protection against oxidative stress [1]: protects against oxidative stress
reversal of oxidative stress-induced loss of viability ([2]; 2 μM, compound added 20 hours prior to tBHP challenge, MTT, FIG. 2): significantly reverses oxidative stress-induced loss of viability
toxicity (control cell viability without tBHP) ([2]; cell viability at 24 h after 0, 1 and 2 μM exposure): not toxic
period the compound remains bioprotective once incorporated into the cell ([2]; mES cells, tBHP challenge, Experiment 2): > 24 h
protection against oxidative stress ([2]; mouse embryonic stem cell line, tBHP, summary of Experiments 1 and 2): protects against oxidative stress
